According to patent US12371454B2, “Cyclic peptide compound having Kras inhibitory action” (priority 2019, dated 2025):
Starred links: 1 amine or outer side, 2 acyl side, 3 side chain; linkers in the order of their positions; H or OH if unused. Positions of bridges follow the written chain, without caps; N, C: chain ends. Non-standard residues stand in square brackets, D forms with d. Residues, ends and D or L forms follow the SMILES beside them. *: point of attachment. hPhe(3-Cl-4-CF3) = N[C@@H](CCc1ccc(C(F)(F)F)c(Cl)c1)C(=O)O; hPhe(3-F,4-CF3) = N[C@@H](CCc1ccc(C(F)(F)F)c(F)c1)C(=O)O; hPhe(4-CF3) = N[C@@H](CCc1ccc(C(F)(F)F)cc1)C(=O)O; NMePhe(4-CN) = CN[C@@H](Cc1ccc(C#N)cc1)C(=O)O; NMePhe(4-Cl) = CN[C@@H](Cc1ccc(Cl)cc1)C(=O)O; NMePhe(4-Me) = CN[C@@H](Cc1ccc(C)cc1)C(=O)O; NMedβ3hAla = C[C@H](CC(=O)[*:2])N(C)[*:1]; Phe(3-I) = N[C@@H](Cc1cccc(I)c1)C(=O)O; Pro(4,4-F2) = O=C(O)[C@@H]1CC(F)(F)CN1; NMehPhe = CN[C@@H](CCc1ccccc1)C(=O)O; NMeCha = CN[C@@H](CC1CCCCC1)C(=O)O; NMeGly(cPr) = CN[C@H](C(=O)O)C1CC1; Gly(N-(CH2)2OEt) = CCOCCNCC(=O)O; NMeF = CN[C@@H](Cc1ccccc1)C(=O)O; NMeI = CC[C@H](C)[C@H](NC)C(=O)O; NMeβAla = CN(CCC(=O)[*:2])[*:1]; NMeD = CN[C@@H](CC(=O)O)C(=O)O; NMeL = CN[C@@H](CC(C)C)C(=O)O; NMeV = CN[C@H](C(=O)O)C(C)C; d(β3hA) = C[C@@H](N)CC(=O)O; NMeA = CN[C@@H](C)C(=O)O; Nle = CCCC[C@H](N)C(=O)O; Piperidide = C1CCN(*)CC1; Pyrrolidide = C1CCN(*)C1; Ac5c = NC1(C(=O)O)CCCC1; Ac4c = NC1(C(=O)O)CCC1; Sar = CNCC(=O)O

Each molecule was assayed against T1, Kras and SOS1 (biotin-tagged human Kras loaded with GDP, His-tagged human SOS1) (Homo sapiens, UniProt P01116, G12D) (assay: Protein-protein interaction inhibition between Kras and SOS1 (KrasGl2D-SOS PPI) using AlphaScreen). Conditions: AlphaScreen; biotin-tagged human Kras loaded with GDP, His-tagged human SOS1; read-out: KRAS G12D-SOS PPI IC50.
T1 construct: made in house; host or cells: E. coli (stated for Kras only)
Type: binding
Summary of the method: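 Donor beads (nickel) hold His-SOS1; acceptor beads (streptavidin) hold biotin-Kras bound to GDP. Signal measured at 520-620 nm following 680 nm excitation.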

T1 sequence (P01116 1-188 isoform P01116-2 G12D): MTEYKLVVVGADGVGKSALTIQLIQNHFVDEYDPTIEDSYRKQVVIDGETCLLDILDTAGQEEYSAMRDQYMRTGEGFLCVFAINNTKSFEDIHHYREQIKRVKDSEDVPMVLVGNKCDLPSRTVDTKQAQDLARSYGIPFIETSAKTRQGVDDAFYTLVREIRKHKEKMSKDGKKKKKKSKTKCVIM

Compound	IC50 [nM]
CCOCCN1CC(=O)N(C)[C@@H](CC2CCCCC2)C(=O)N(C)CC(=O)N[C@@H](CCc2ccc(C(F)(F)F)c(Cl)c2)C(=O)N2CCC[C@H]2C(=O)NC2(CCCC2)C(=O)N(C)[C@@H](C(C)C)C(=O)N[C@H](C)CC(=O)N(C)[C@@H](CC(C)C)C(=O)N[C@@H]([C@@H](C)CC)C(=O)N(C)CC1=O [Compound 864] (cyclo([Ac5c][NMeV][d(β3hA)][NMeL]I[Sar][Gly(N-(CH2)2OEt)][NMeCha][Sar][hPhe(3-Cl-4-CF3)]P))	73
CC[C@H](C)[C@@H]1NC(=O)[C@H](C)N(C)C(=O)C[C@@H](C)NC(=O)[C@H](C(C)C)N(C)C(=O)[C@H](Cc2ccccc2)N(C)C(=O)[C@@H]2CCCN2C(=O)[C@H](CCc2ccc(C(F)(F)F)cc2)NC(=O)CN(C)C(=O)[C@H](Cc2ccc(Cl)cc2)N(C)C(=O)CN(C)C(=O)CN(C)C1=O [Compound 865] (cyclo(I[Sar][Sar][NMePhe(4-Cl)][Sar][hPhe(4-CF3)]P[NMeF][NMeV][d(β3hA)][NMeA]))	55
CC[C@H](C)[C@@H]1NC(=O)[C@H](CC(C)C)N(C)C(=O)C[C@@H](C(=O)N2CCCCC2)N(C)C(=O)[C@H](C(C)C)N(C)C(=O)C2(CCCC2)NC(=O)[C@@H]2CCCN2C(=O)[C@H](CCc2ccc(C(F)(F)F)c(Cl)c2)NC(=O)CN(C)C(=O)[C@H](Cc2ccc(C#N)cc2)N(C)C(=O)CN(C)C(=O)CN(C)C1=O [Compound 867] ([NMeL]I[Sar][Sar][NMePhe(4-CN)][Sar][hPhe(3-Cl-4-CF3)]P[Ac5c][NMeV][NMeD]-Piperidide; lactam N-11)	3.4
CC[C@H](C)[C@@H]1NC(=O)[C@H](CC(C)C)N(C)C(=O)C[C@@H](C)N(C)C(=O)[C@H]([C@@H](C)CC)N(C)C(=O)C2(CCC2)NC(=O)[C@@H]2CC(F)(F)CN2C(=O)[C@H](CCc2ccc(C(F)(F)F)c(Cl)c2)NC(=O)CN(C)C(=O)[C@H](Cc2ccc(C)cc2)N(C)C(=O)CN(C)C(=O)CN(C)C1=O [Compound 869] (cyclo([Ac4c][NMeI][NMedβ3hAla][NMeL]I[Sar][Sar][NMePhe(4-Me)][Sar][hPhe(3-Cl-4-CF3)][Pro(4,4-F2)]))	9.8
CC[C@H](C)[C@@H]1NC(=O)[C@H](C)N(C)C(=O)C[C@@H](C)NC(=O)[C@H](CC(C)C)N(C)C(=O)[C@H](Cc2ccccc2)N(C)C(=O)[C@@H]2CC(F)(F)CN2C(=O)[C@H](CCc2ccc(C(F)(F)F)cc2)NC(=O)CN(C)C(=O)[C@H](Cc2ccc(Cl)cc2)N(C)C(=O)CN(C)C(=O)CN(C)C1=O [Compound 870] (cyclo(I[Sar][Sar][NMePhe(4-Cl)][Sar][hPhe(4-CF3)][Pro(4,4-F2)][NMeF][NMeL][d(β3hA)][NMeA]))	15
CC[C@H](C)[C@@H]1NC(=O)[C@H](CC(C)C)N(C)C(=O)C[C@@H](C)N(C)C(=O)[C@H](C2CC2)N(C)C(=O)C2(CCCC2)NC(=O)[C@@H]2CCCN2C(=O)[C@H](CCc2ccc(C(F)(F)F)c(Cl)c2)NC(=O)CN(C)C(=O)[C@H](CC2CCCCC2)N(C)C(=O)CN(C)C(=O)CN(C)C1=O [Compound 874] (cyclo([Ac5c][NMeGly(cPr)][NMedβ3hAla][NMeL]I[Sar][Sar][NMeCha][Sar][hPhe(3-Cl-4-CF3)]P))	25
CCCC[C@@H]1NC(=O)[C@H](Cc2cccc(I)c2)NC(=O)CN(C)C(=O)[C@H](Cc2ccc(Cl)cc2)N(C)C(=O)CN(C)C(=O)CN(C)C(=O)[C@H]([C@@H](C)CC)NC(=O)[C@H](CC(C)C)N(C)C(=O)C[C@@H](C(=O)N2CCCCC2)N(C)C(=O)[C@H](CC(C)C)NC(=O)[C@H](Cc2ccc(C)cc2)N(C)C1=O [Compound 876] ([NMeL]I[Sar][Sar][NMePhe(4-Cl)][Sar][Phe(3-I)][Nle][NMePhe(4-Me)]L[NMeD]-Piperidide; lactam N-11)	18
CC[C@H](C)[C@@H]1NC(=O)[C@H](C)N(C)C(=O)C[C@@H](C(=O)N2CCCC2)NC(=O)[C@H](CC(C)C)N(C)C(=O)[C@H](CCc2ccccc2)N(C)C(=O)[C@H](CC(C)C)NC(=O)[C@H](CCc2ccc(C(F)(F)F)cc2)NC(=O)CN(C)C(=O)[C@H](Cc2ccc(Cl)cc2)N(C)C(=O)CN(C)C(=O)CN(C)C1=O [Compound 878] ([NMeA]I[Sar][Sar][NMePhe(4-Cl)][Sar][hPhe(4-CF3)]L[NMehPhe][NMeL]D-Pyrrolidide; lactam N-11)	320
CC[C@H](C)[C@@H]1NC(=O)[C@H](CC(C)C)N(C)C(=O)CCN(C)C(=O)[C@H](C(C)C)N(C)C(=O)C2(CCCC2)NC(=O)[C@@H]2CCCN2C(=O)[C@H](CCc2ccc(C(F)(F)F)c(F)c2)NC(=O)CN(C)C(=O)[C@H](CC2CCCCC2)N(C)C(=O)CN(C)C(=O)CN(C)C1=O [Compound 879] (cyclo([Ac5c][NMeV][NMeβAla][NMeL]I[Sar][Sar][NMeCha][Sar][hPhe(3-F,4-CF3)]P))	36
